Test results published in patent US20080207748A1, “VITAMIN C PREPARATION” (INNOVATION LABS, INC., priority 2007, published 2008).

Key:
[1] = system: H9 cells, a human T-cell line; assay: Vitamin C absorption (uptake) in H9 cells; format: cell-based; settings: 50 μM
Protocol: The rate of vitamin C absorption in H9 cells, a human T-cell line, was determined for the formulation of Example 1 and other vitamin C formulations.
At the times indicated in FIG. 1, cells were harvested and measured for vitamin C and protein content. The cellular vitamin C levels of the cells were measured using the 2,4-dinitrophenylhydrazine spectrophotometric technique (Bessey et al., 1947).

[2] = system: Plasma C-Reactive Protein; assay: Human plasma C-reactive protein after single oral dose; format: in vivo; settings: for Plasma C-Reactive Protein Change: 0 vs 24 hrs
Protocol: (§1) The human serum vitamin C, plasma C-reactive protein, oxidized LDL, and urine uric and oxalate levels were determined for the formulation of Example 1 and other vitamin C formulations.
(§2) Healthy volunteers maintained a low vitamin C diet for 14 days. […] Blood samples were collected immediately prior to the oral dose administration and at various time points post ingestion. Urine was collected over a 24-hour time period and saved for oxalate and uric acid assays. Serum vitamin C levels were measured by HPLC with coulometric electrochemical detection. Plasma C-reactive protein and oxidized LDL were measured by enzyme linked immunosorbent assay (ELISA) and urine uric acid and oxalate levels were measured by enzymatic methods.

[3] = system: human T-lymphoblastic H9 cell line; assay: Inhibition of PHA- or bifenthrin-induced homotypic T-lymphocyte aggregation; format: cell-based; settings: H9 cells, 0.5 μM vitamin C form, 30 minutes at 37° C.; for homotypic aggregation (aggregate size), activator: None: no activator
Protocol: The ability to inhibit pesticide-induced T-lymphocyte aggregation was determined for the formulation of Example 1 and other vitamin C formulations.
The human T-lymphoblastic H9 cell line was incubated with vehicle (-) or with one of two activators of T-lymphocyte aggregation, phytohemagglutinin (PHA; […]) or bifenthrin ([…]). […] After treatment, the ability of each formulation to inhibit homotypic aggregation was measured by counting aggregate size at 400× magnification.

Plasma OxLDL = assay: Human plasma oxidized LDL after single oral dose; format: in vivo; settings: for Plasma OxLDL Change: 0 vs 24 hrs
Protocol: as §1, §2

[4] = Human urine uric acid after single oral dose; format: in vivo; settings: single oral dose 1000 mg, urine collected over 24 hours
Protocol: as §1, §2

[5] = Human serum vitamin C levels after single oral dose; format: in vivo
Protocol: as §1, §2

[6] = Human urine oxalate after single oral dose; format: in vivo; settings: single oral dose 1000 mg, urine collected over 24 hours
Protocol: as §1, §2

[7] = 0 hrs (immediately prior to oral dose)
[8] = single oral dose 1000 mg, 24 hrs

| cellular vitamin C levels (peak) ([1]; at approximately two hours) | cellular vitamin C levels ([1]; at fifteen minutes) | Compound | Plasma C-Reactive Protein [2, 7] | Plasma C-Reactive Protein Change [2] | Plasma C-Reactive Protein [2, 8] | homotypic aggregation (aggregate size), activator: PHA [3] | homotypic aggregation (aggregate size), activator: Bifenthrin [3] | homotypic aggregation (aggregate size), activator: None [3] | Plasma OxLDL Change (Plasma OxLDL) | Urine Markers: Uric Acid [4] | Serum Vitamin C Levels ([5]; 0 hrs (immediately prior to single oral dose of 1000 mg)) | Serum Vitamin C Levels ([5]; single oral dose 1000 mg, 1 hr post-admin) | Serum Vitamin C Levels ([5]; single oral dose 1000 mg, 2 hrs post-admin) | Serum Vitamin C Levels ([5]; single oral dose 1000 mg, 4 hrs post-admin) | Serum Vitamin C Levels ([5]; single oral dose 1000 mg, 6 hrs post-admin) | Serum Vitamin C Levels ([5]; single oral dose 1000 mg, 24 hrs post-admin) | Urine Markers: Oxalate [6] | Plasma OxLDL (Plasma OxLDL; [7]) | Plasma OxLDL (Plasma OxLDL; [8]) |
| --- | --- | --- | --- | --- | --- | --- | --- | --- | --- | --- | --- | --- | --- | --- | --- | --- | --- | --- | --- |
| 31 nmol/mg protein | 7±1.4 nmol/mg protein | O=C1O[C@H]([C@@H](O)CO)C(O)=C1O [AA, ascorbic acid] | 129.75 ± 26 ng/mL | 12.75 ng/mL | 117.00 ± 33 ng/mL | 75 ± 12 | 130 ± 5 | 9 ± 4 | 0.89 U/ml | – | – | – | – | – | – | – | – | – | – |
| – | – | calcium ascorbate [CaA] | 189.17 ± 41 ng/mL | 8.34 ng/mL | 180.83 ± 43 ng/mL | 110 ± 10 | 137 ± 8 | 12 ± 4 | 3.78 U/ml | 39.75 ± 10.5 mg/dL | 0.50 ± 0.05 mg/dL | 0.88 ± 0.10 mg/dL | 1.12 ± 0.17 mg/dL | 1.03 ± 0.13 mg/dL | 1.0 ± 0.13 mg/dL | 0.59 ± 0.09 mg/dL | 17.8 ± 2.6 mg/dL | 60.56 ± 5 U/ml | 57.67 ± 6 U/ml |
